# In patent US12325708B2, “Adenosine 2 receptor antagonists” (Nektar Therapeutics, priority 2019, dated 2025):
# Like-named read-outs stand apart in the source and are kept apart here.
# Experiments:
# [1] = Brain-to-plasma ratio (B/P) after administration; format: in vivo, Sprague-Dawley rats; conditions: Table 2, brain-to-plasma ratio at 1 h
# Method in brief: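 Plasma pharmacokinetic parameters determined after oral (PO) administration; brain-to-plasma concentration ratio (B/P) used as the brain penetration measure.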
# [2] = Plasma pharmacokinetic parameters following intravenous (IV) or oral (PO) administration in rats; format: in vivo, Sprague-Dawley rats; conditions: rat; for Vd: read-out: Vss obs; for AUC / bioavailability: oral; for Total clearance as % liver blood flow: IV; for Plasma concentrations post 8 hr: IV 0.5 mg/kg and PO 2.5 mg/kg; for F: PO 2.5 mg/kg vs IV 0.5 mg/kg
# Method in brief: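 Fasted male Sprague-Dawley rats (230-250 g, n=2/group), dosed 0.5 mg/kg IV (jugular) or 2.5 mg/kg PO gavage in water. Plasma sampled 2–1440 min, analyzed by LC-MS/MS; non-compartmental analysis with nominal doses/times gave AUC, Cmax, Tmax, CL, Vss, MRTlast, F.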
# [3] = target: T1, A2A receptor (Homo sapiens, UniProt P29274); experiment: Radioligand receptor binding assay, A2A receptor; conditions: cell membranes overexpressing A2A receptor, read-out: Potency Ki A2A
# T1 construct: purchased
# T1 sequence (P29274 whole entry): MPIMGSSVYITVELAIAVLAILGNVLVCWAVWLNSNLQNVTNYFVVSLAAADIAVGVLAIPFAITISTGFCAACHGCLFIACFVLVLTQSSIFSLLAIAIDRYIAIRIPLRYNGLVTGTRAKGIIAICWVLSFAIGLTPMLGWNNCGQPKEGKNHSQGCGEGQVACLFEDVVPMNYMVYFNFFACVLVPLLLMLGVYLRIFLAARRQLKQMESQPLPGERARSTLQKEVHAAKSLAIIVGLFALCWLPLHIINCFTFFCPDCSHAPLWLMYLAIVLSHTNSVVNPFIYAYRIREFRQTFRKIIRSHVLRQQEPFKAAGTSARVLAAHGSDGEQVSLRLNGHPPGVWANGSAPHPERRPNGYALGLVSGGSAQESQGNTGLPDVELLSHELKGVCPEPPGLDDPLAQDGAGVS
# Method in brief: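 Membranes from cell lines overexpressing human A2A, A1 or A3 receptors were incubated 60 min at room temperature with the receptor-appropriate [3H] tracer. After filtration and washing in 50 mM Tris HCl pH 7.5, bound label was counted by scintillation. IC50 came from nonlinear regression and Ki from the Cheng-Prusoff equation.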
# [4] = male, Sprague-Dawley, plasma, intravenous, 0.5 mg/kg, Table 2 summary of Example 27, values marked 1 are the average of experiments
# [5] = male, Sprague-Dawley, plasma, iv, 0.5 mg/kg, IV 0.5 mg/kg, injectable water
# [6] = male, Sprague-Dawley, plasma, 2.5 mg/kg, Table 2 summary of Example 27, values marked 1 are the average of experiments
# [7] = male, Sprague-Dawley, plasma, po, 2.5 mg/kg, PO 2.5 mg/kg via gavage, injectable water
# [8] = male, Sprague-Dawley, plasma, po, 2.5 mg/kg, PO 2.5 mg/kg via gavage, injectable water, read-out: Cmax
# [9] = male, Sprague-Dawley, plasma, po, 2.5 mg/kg, PO 2.5 mg/kg via gavage, injectable water, read-out: Tmax
# [10] = IV 0.5 mg/kg, injectable water, listed as Compound 1 (#1), 0.5 mg/kg
# [11] = IV 0.5 mg/kg, injectable water, listed as Compound 1 (#2), 0.5 mg/kg
# [12] = PO 2.5 mg/kg via gavage, injectable water, listed as Compound 1 (#1), 2.5 mg/kg
# [13] = PO 2.5 mg/kg via gavage, injectable water, listed as Compound 1 (#2), 2.5 mg/kg
# [14] = IV 0.5 mg/kg, injectable water, listed as Compound 4 (#2), 0.5 mg/kg
# [15] = PO 2.5 mg/kg via gavage, injectable water, listed as Compound 4 (#2), 2.5 mg/kg
compound,measurement,setting,value
"COCCOc1ccc(N2CCN(CCN(C)c3cc4nc(-c5ncco5)nn4c(N)n3)CC2)cc1 [Compound 1, N^7-(2-{4-[4-(2-methoxyethoxy)phenyl]piperazin-1-yl}ethyl)-N^7-methyl-2-(1,3-oxazol-2-yl)[1,2,4]triazolo[1,5-c]pyrimidine-5,7-diamine]",B/P (1 h),[1],0.06^1
same,clearance,[2]; [4],31 mL/min/kg
same,AUC(0-inf),[2]; [5],340 ng·h/mL
same,AUC(0-t),[2]; [5],335 ng·h/mL
same,MRT last,[2]; [5],84.6 to 87 min
same,clearance,[2]; [5],24.6 to 36.1 mL/min/kg
same,Cmax,"[2]; male, Sprague-Dawley, plasma, iv, 0.5 mg/kg, IV 0.5 mg/kg, injectable water, read-out: Cmax",311 ng/mL
same,Tmax,"[2]; male, Sprague-Dawley, plasma, iv, 0.5 mg/kg, IV 0.5 mg/kg, injectable water, read-out: Tmax",2 min
same,Vd,[2]; [5],2.17 to 3.44 L/kg
same,AUC,[2]; [6],969 ng·h/mL
same,bioavailability,[2]; [6],71%
same,AUC(0-inf),[2]; [7],1280 ng·h/mL
same,AUC(0-t),[2]; [7],1220 ng·h/mL
same,Cmax,[2]; [8],242 to 367 ng/mL
same,Tmax,[2]; [9],45 to 60 min
same,Total clearance as % liver blood flow,[2],40-60 % liver blood flow
same,Plasma concentrations post 8 hr,[2],below the limit of quantitation
same,AUCinf,[2]; [10],233 ng·h/mL
same,AUClast,[2]; [10],228 ng·h/mL
same,CL,[2]; [10],36.1 mL/min/kg
same,Cmax,[2]; [10],207 ng/mL
same,MRTlast,[2]; [10],84.6 min
same,Vss obs,[2]; [10],3.44 L/kg
same,CL,[2]; [11],24.6 mL/min/kg
same,MRTlast,[2]; [11],87 min
same,Vss obs,[2]; [11],2.17 L/kg
same,AUCinf,[2]; [12],777 ng·h/mL
same,AUClast,[2]; [12],718 ng·h/mL
same,Cmax,[2]; [12],242 ng/mL
same,Tmax,[2]; [12],45 min
same,Cmax,[2]; [13],367 ng/mL
same,Tmax,[2]; [13],60 min
same,F,[2]; listed as Compound 1 (#1),66.8%
same,F,[2]; listed as Compound 1 (#2),75.5%
same,Ki,[3],6 nM
"COCCOc1cnc(N2CCN(CCN(C)c3cc4nc(-c5ncco5)nn4c(N)n3)CC2)c(F)c1 [Compound 4, N^7-(2-{4-[3-fluoro-5-(2-methoxyethoxy)pyridin-2-yl]piperazin-1-yl}ethyl)-N^7-methyl-2-(1,3-oxazol-2-yl)[1,2,4]triazolo[1,5-c]pyrimidine-5,7-diamine]",Kp at 1 h,"[1]; Sprague-Dawley, rat",0.04
same,clearance,[2]; [4],34 mL/min/kg
same,AUC(0-inf),[2]; [5],251 ng·h/mL
same,AUC(0-t),[2]; [5],249 ng·h/mL
same,MRT last,[2]; [5],53.4 min
same,clearance,[2]; [5],26.8 to 33.6 mL/min/kg
same,Vd,[2]; [5],1.93 L/kg
same,AUC,[2]; [6],898 ng·h/mL
same,bioavailability,[2]; [6],78%
same,AUC(0-inf),[2]; [7],978 ng·h/mL
same,AUC(0-t),[2]; [7],898 ng·h/mL
same,MRT last,[2]; [7],153 min
same,Cmax,[2]; [8],231 ng/mL
same,Tmax,[2]; [9],30 to 45 min
same,Total clearance as % liver blood flow,[2],45-56 % liver blood flow
same,Plasma concentrations post 8 hr,[2],below the limit of quantitation
same,CL,"[2]; IV 0.5 mg/kg, injectable water, listed as Compound 4 (#1), 0.5 mg/kg",33.6 mL/min/kg
same,AUCinf,[2]; [14],312 ng·h/mL
same,AUClast,[2]; [14],310 ng·h/mL
same,CL,[2]; [14],26.8 mL/min/kg
same,MRTlast,[2]; [14],54.8 min
same,Tmax,"[2]; PO 2.5 mg/kg via gavage, injectable water, listed as Compound 4 (#1), 2.5 mg/kg",45 min
same,AUCinf,[2]; [15],707 ng·h/mL
same,AUClast,[2]; [15],662 ng·h/mL
same,Cmax,[2]; [15],172 ng/mL
same,Tmax,[2]; [15],30 min
same,F,[2]; listed as Compound 4 (#1),77.8%
same,F,[2]; listed as Compound 4 (#2),45.4%
same,Ki,[3],2 nM
